The structures appear in SMILES notation.

The target in the test is Intercellular adhesion molecule (ICAM-1), Integrin alpha-L/beta-2 (Homo sapiens, UniProt P05107+P05362+P20701). Description: Concentration required to inhibit binding of ICAM-1 to LFA-1 (Leukocyte function-associated antigen-1), evaluated ELISA. It counts as protein-complex assay.
Chain of Intercellular adhesion molecule (ICAM-1), Integrin alpha-L/beta-2 (P20701 whole entry): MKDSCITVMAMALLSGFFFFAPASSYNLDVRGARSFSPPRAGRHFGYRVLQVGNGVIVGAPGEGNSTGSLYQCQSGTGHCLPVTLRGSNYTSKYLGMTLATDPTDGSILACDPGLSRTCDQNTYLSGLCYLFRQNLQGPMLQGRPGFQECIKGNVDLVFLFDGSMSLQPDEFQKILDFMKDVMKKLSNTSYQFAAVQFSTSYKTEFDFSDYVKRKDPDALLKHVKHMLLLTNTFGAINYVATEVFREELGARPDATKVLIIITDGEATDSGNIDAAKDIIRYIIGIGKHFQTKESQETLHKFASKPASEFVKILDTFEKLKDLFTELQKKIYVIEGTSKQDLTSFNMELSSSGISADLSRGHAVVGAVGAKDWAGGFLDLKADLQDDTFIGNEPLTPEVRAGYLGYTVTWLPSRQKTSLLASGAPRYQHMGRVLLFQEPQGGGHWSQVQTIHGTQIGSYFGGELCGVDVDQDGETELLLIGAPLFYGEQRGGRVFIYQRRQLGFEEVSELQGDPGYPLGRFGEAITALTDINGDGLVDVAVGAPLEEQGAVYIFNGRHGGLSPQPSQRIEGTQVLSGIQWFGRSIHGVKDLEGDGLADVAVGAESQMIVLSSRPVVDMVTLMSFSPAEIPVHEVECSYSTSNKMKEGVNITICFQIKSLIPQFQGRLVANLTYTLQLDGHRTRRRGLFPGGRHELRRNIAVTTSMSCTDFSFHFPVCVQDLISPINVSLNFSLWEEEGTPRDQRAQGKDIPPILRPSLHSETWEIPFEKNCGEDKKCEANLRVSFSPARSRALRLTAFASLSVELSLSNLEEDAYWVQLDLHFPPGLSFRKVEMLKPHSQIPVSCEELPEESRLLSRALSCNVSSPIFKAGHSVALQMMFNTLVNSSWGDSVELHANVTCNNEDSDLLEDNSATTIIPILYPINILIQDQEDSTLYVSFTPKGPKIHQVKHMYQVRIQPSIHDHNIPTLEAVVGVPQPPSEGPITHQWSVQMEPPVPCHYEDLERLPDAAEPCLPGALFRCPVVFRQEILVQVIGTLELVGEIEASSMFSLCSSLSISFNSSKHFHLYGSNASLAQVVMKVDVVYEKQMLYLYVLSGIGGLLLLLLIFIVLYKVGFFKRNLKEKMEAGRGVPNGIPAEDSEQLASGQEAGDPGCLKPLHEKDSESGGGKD
Chain of Intercellular adhesion molecule (ICAM-1), Integrin alpha-L/beta-2 (P05362 whole entry): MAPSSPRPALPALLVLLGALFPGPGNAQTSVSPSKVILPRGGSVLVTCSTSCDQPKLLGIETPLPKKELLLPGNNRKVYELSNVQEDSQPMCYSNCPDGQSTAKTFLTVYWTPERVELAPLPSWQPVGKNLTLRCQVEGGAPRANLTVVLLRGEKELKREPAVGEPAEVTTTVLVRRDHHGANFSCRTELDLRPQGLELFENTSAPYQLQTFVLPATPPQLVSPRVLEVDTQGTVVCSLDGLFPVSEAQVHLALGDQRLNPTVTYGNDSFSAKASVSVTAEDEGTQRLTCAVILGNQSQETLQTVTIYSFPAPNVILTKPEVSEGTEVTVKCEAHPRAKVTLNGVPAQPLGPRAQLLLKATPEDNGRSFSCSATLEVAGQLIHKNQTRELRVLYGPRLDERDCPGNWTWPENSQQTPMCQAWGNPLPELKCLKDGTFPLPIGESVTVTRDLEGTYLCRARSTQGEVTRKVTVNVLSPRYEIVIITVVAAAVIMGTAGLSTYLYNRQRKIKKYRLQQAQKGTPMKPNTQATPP
Chain of Intercellular adhesion molecule (ICAM-1), Integrin alpha-L/beta-2 (P05107 whole entry): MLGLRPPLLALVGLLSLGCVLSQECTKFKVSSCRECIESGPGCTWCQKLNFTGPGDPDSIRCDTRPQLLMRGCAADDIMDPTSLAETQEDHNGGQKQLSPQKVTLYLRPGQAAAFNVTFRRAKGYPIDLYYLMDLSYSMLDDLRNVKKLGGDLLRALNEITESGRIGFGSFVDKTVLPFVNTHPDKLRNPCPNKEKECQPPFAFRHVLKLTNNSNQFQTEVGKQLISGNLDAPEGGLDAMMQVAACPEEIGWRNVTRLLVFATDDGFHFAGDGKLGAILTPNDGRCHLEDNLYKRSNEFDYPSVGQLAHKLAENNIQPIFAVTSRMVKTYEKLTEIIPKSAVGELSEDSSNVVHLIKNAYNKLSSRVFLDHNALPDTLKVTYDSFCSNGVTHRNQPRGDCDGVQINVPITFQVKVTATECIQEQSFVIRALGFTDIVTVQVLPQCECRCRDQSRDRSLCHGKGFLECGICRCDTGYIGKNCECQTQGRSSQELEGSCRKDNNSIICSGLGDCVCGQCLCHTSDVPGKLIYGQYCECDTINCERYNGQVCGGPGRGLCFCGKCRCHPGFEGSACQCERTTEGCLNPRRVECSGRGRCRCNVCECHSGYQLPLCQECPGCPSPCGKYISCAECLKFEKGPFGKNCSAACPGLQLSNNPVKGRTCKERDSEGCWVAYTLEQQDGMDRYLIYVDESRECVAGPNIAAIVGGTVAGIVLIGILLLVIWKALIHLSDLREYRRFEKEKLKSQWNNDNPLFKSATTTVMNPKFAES

One may read the IC50 as the concentration that gives 50% inhibition. `CC(C)[C@H](NC(=O)c1ccccc1Br)C(=O)O` displayed an IC50 of 11.3 µM. In other words, the double-digit micromolar range.
Then `O=C(N[C@@H](Cc1c[nH]c2ncccc12)C(=O)O)c1ccccc1Br`, with 63.8 µM; and `NC(=O)C[C@H](NC(=O)c1ccccc1Br)C(=O)O`, with 1.08 µM; and `CC[C@H](C)[C@H](NC(=O)c1ccccc1Br)C(=O)O`, with 106 µM.
Then `O=C(O)CNC(=O)c1ccccc1Br`, with 314 µM.
Then `O=C(N[C@@H](Cc1ccc(O)cc1)C(=O)O)c1ccccc1Br`, with 1.09 µM.
`C[C@H](NC(=O)c1ccccc1Br)C(=O)O` showed a half-maximal inhibitory concentration (IC50) of 6.64 µM.
In turn, `NC(=O)CC[C@H](NC(=O)c1ccccc1Br)C(=O)O` displayed an IC50 of 1.77 µM. Compared with the last molecule, the IC50 is about 3.8-fold lower.
Then `O=C(N[C@@H](Cc1cnc[nH]1)C(=O)O)c1ccccc1Br`, with 0.75 µM; and `O=C(N[C@@H](Cc1c[nH]c2ccc(O)cc12)C(=O)O)c1ccccc1Br`, with 24.2 µM.
The molecule `NC(=O)[C@H](Cc1c[nH]c2ccccc12)NC(=O)c1ccccc1Br` showed an IC50 of more than 1000 µM.
Then `O=C(N[C@@H](Cc1ccc2ccccc2c1)C(=O)O)c1ccccc1Br`, with 24.4 µM; and `O=C(N[C@@H](Cc1c[nH]c2ccc(F)cc12)C(=O)O)c1ccccc1Br`, with 10.8 µM; and `C[C@@H](O)[C@H](NC(=O)c1ccccc1Br)C(=O)O`, with 3.84 µM.
Then `O=C(N[C@@H](Cc1cccc2ccccc12)C(=O)O)c1ccccc1Br`, with 15.9 µM; and `O=C(N[C@@H](CO)C(=O)O)c1ccccc1Br`, with 6.15 µM.
Then `COC(=O)[C@H](Cc1c[nH]c2ccccc12)NC(=O)c1ccccc1Br`, with more than 1000 µM; and `CSCC[C@H](NC(=O)c1ccccc1Br)C(=O)O`, with 7.46 µM; and `O=C(N[C@@H](Cc1ccccc1)C(=O)O)c1ccccc1Br`, with 4.89 µM.
For the molecule `C[C@@H](NC(=O)c1ccccc1Br)C(=O)O`, the half-maximal inhibitory concentration (IC50) stood at 57.5 µM.
Then `O=C(N[C@@H](Cc1cccs1)C(=O)O)c1ccccc1Br`, with 5.5 µM.
On to `O=C(N[C@@H](CCc1ccccc1)C(=O)O)c1ccccc1Br`, for which the concentration for half-maximal inhibition (IC50) was 5.09 µM.
Then `O=C(N[C@H](Cc1cccc2ccccc12)C(=O)O)c1ccccc1Br`, with more than 200 µM.
Then `O=C(N[C@@H](CS)C(=O)O)c1ccccc1Br`, with 4.26 µM.
Then `O=C(N[C@H](Cc1ccc2ccccc2c1)C(=O)O)c1ccccc1Br`, with 243 µM; and `O=C(N[C@@H](Cc1c[nH]c2ccccc12)C(=O)NO)c1ccccc1Br`, with 140 µM.
As to `O=C(O)C[C@H](NC(=O)c1ccccc1Br)C(=O)O`, the IC50 was more than 200 µM.
The molecule `N=C(N)NCCC[C@H](NC(=O)c1ccccc1Br)C(=O)O` had an IC50 of 2.71 µM. This counts as single-digit micromolar.
Then `COc1ccc2[nH]cc(C[C@H](NC(=O)c3ccccc3Br)C(=O)O)c2c1`, with 2.77 µM; and `O=C(O)[C@@H]1CCCN1C(=O)c1ccccc1Br`, with more than 1000 µM; and `O=C(N[C@H](Cc1c[nH]c2ccccc12)C(=O)O)c1ccccc1Br`, with 76.6 µM.
Molecule `O=C(N[C@@H](Cc1c[nH]c2ccc(Br)cc12)C(=O)O)c1ccccc1Br` had an IC50 of 28.4 µM. Against the preceding molecule, the IC50 is about 2.7-fold lower.
Then `O=C(N[C@H](CO)C(=O)O)c1ccccc1Br`, with 72.6 µM; and `O=C(O)CC[C@H](NC(=O)c1ccccc1Br)C(=O)O`, with 30.1 µM.
Then `O=C(N[C@@H](Cc1c[nH]c2cc(F)ccc12)C(=O)O)c1ccccc1Br`, with 7.64 µM.
Then `N#Cc1ccc(C[C@H](NC(=O)c2ccccc2Br)C(=O)O)cc1`, with 36.8 µM.
Consider `O=C(N[C@@H](Cc1c[nH]c2ccccc12)C(=O)O)c1ccccc1Br`, for which the half-inhibitory concentration (IC50) was 1.7 µM.
Then `CC(C)C[C@H](NC(=O)c1ccccc1Br)C(=O)O`, with 54.3 µM.
Then `O=C(N[C@H](Cc1ccccc1)C(=O)O)c1ccccc1Br`, with 280 µM; and `NCCCC[C@H](NC(=O)c1ccccc1Br)C(=O)O`, with 1.21 µM.
Then `O=C(N[C@@H](Cc1ccc(-c2ccccc2)cc1)C(=O)O)c1ccccc1Br`, with 50.5 µM; and `O=C(NCCc1c[nH]c2ccccc12)c1ccccc1Br`, with more than 1000 µM.
